Data published in patent US4427693A, “Antiinflammatory 4,5-diaryl-α,α-bis (polyhalomethyl)-2-thiophenemethanamines” (E. I. Du Pont de Nemours and Company, priority 1981, dated 1984).
Where two headings read alike, the source gives them in different places.

Test system: Adjuvant-Induced Arthritis
Assay: Established Adjuvant-Induced Arthritis in Rats
Type: in vivo, Charles River Lewis male rats
Conditions: for ED50: Rattus norvegicus, 168 h, read-out: ED50 = effective dose for 50% decrease from control paw volume
Protocol: A procedure for detecting and comparing the antiinflammatory activity of compounds in this series and standard drugs for which there is a good correlation with human efficacy is the adjuvant-induced arthritis test in rats.
Established Adjuvant-Induced Arthritis in Rats
Charles River Lewis male rats (130-150 grams) are injected subcutaneously in plantar area of the right hind paw with 0.1 ml of adjuvant (Difco heatkilled, lyophilized Mycobacterium butyricum suspended in mineral oil 5 mg/ml). 20 Non-arthritic controls are injected with mineral oil. The animals are held for 2 weeks to allow development of arthritis. Paw volumes (uninjected, left hind paw) are measured and the adjuvant injected rats are culled and distributed to treatment groups of 10 of equal disease severity. Non-arthritic controls are distributed to 2 groups of 10. The rats are given oral doses of compound or PVA-Acacia (Polyvinyl Alcohol 1%, Gum Acacia, U.S.P. 5%, Methylparaben 0.5%) (10 ml/kg) by gavage on that day and on the 6 following days. One day after the last dose the paw volumes (uninjected, left hind paw) are measured using a Ugo Basile Volume Differential Meter Model 7101. [formula]
Dose-response regression lines of the % decrease are plotted on semi-log paper by visual fit and the ED50% decrease from control paw volume is determined by inspection.

[1] = oral by gavage, daily, 7 days, dose-response regression lines, by visual fit

Compound | ED50 [1] | also measured
CC(=O)Oc1ccccc1C(=O)O [Aspirin, reference compound] | – | ED50 (po): 270 mg/kg
COc1ccc(-c2cc(C(N)(C(F)(F)F)C(F)(F)F)sc2-c2ccc(OC)cc2)cc1 [Example 1, 4,5-Bis(4-methoxyphenyl)-α,α-bis(trifluoromethyl)-2-thiophenemethanamine] | – | Percent Decrease From Control Paw Volume (daily oral dose 27 mg/kg, 7 days, p < 0.001 compared to control by Students "t" test): 47%
NC(c1cc(-c2ccc(F)cc2)c(-c2ccc(F)cc2)s1)(C(F)(F)F)C(F)(F)F [Example 2, 4,5-bis(4-fluorophenyl)-α,α-bis(trifluoromethyl)-2-thiophenemethanamine] | 1.3 mg/kg | –
CSc1ccc(-c2sc(C(N)(C(F)(F)F)C(F)(F)F)cc2-c2ccc(F)cc2)cc1 [Example 3, 4-(4-fluorophenyl)-5-(4-methylthiophenyl)-α,α-bis(trifluoromethyl)-2-thiophenemethanamine] | 9 mg/kg | –
NC(c1cc(-c2ccc(F)cc2)c(-c2ccc(Cl)cc2)s1)(C(F)(F)F)C(F)(F)F [Example 4] | – | Percent Decrease From Control Paw Volume (daily oral dose 9 mg/kg, 7 days, p < 0.1 compared to control by Students "t" test): 37%
NC(c1cc(-c2ccccc2)c(-c2ccccc2)s1)(C(F)(F)F)C(F)(F)F [Example 5] | 17 mg/kg | –
NC(c1cc(-c2ccc(F)cc2)c(-c2ccc(F)cc2)s1)(C(F)(F)F)C(F)(F)Cl (stereo not shown) [Example 6] | 3.8 mg/kg | –
NC(c1cc(-c2ccc(F)cc2)c(-c2ccc(F)cc2)s1)(C(F)F)C(F)(F)F (stereo not shown) [Example 7] | 10.5 mg/kg | –
Cc1ccc(-c2cc(C(N)(C(F)(F)F)C(F)(F)F)sc2-c2ccc(C)cc2)cc1 [Example 13] | – | Percent Decrease From Control Paw Volume (daily oral dose 24 mg/kg, 7 days, p < 0.05 compared to control by Students "t" test): 27%
NC(c1cc(-c2ccccc2F)c(-c2ccccc2F)s1)(C(F)(F)F)C(F)(F)F [Example 18] | – | Percent Decrease From Control Paw Volume (daily oral dose 81 mg/kg, 7 days, p < 0.001 compared to control by Students "t" test): 41%
CNC(c1cc(-c2ccc(F)cc2)c(-c2ccc(F)cc2)s1)(C(F)(F)F)C(F)(F)F [Example 28, 1-[4,5-Bis(4-fluorophenyl)thiophen-2-yl]-2,2,2-trifluoro-1-trifluoromethyl-N-methylethanamine] | 6.2 mg/kg | –
COc1ccc2c(c1)c(CC(=O)O)c(C)n2C(=O)c1ccc(Cl)cc1 [Indomethacin, reference compound] | – | ED50 (po): 0.25 mg/kg
CCCCC1C(=O)N(c2ccccc2)N(c2ccccc2)C1=O [Phenylbutazone, reference compound] | 10 mg/kg | –
